Source: patent US11160797B2, “Pyridinone derivatives and their use as selective ALK-2 inhibitors” (NOVARTIS AG, priority 2017, dated 2021)

Experiments:
[1] = biological target: T1, wild-type ALK2 (aa172-499) (Homo sapiens (Human), UniProt Q04771); assay: ADPGlo biochemical autophosphorylation assay, ALK2; settings: 15 uM ATP
[2] = biological target: ALK3 (aa198-525) (Homo sapiens (Human), UniProt P36894); assay: ADPGlo biochemical autophosphorylation assay, ALK3; settings: 15 uM ATP
[3] = biological target: T1, wild-type ALK2 (aa172-499); assay: Caliper biochemical peptide phosphorylation assay, ALK2; settings: Caliper peptide phosphorylation, 15 uM ATP; read-out: ALK2 IC50
[4] = biological target: ALK2 FOP mutant (aa172-499 R206H) (Homo sapiens (Human), UniProt Q04771, R206H); assay: Caliper biochemical peptide phosphorylation assay, ALK2 FOP; settings: Caliper peptide phosphorylation, R206H, 15 uM ATP; read-out: ALK2 FOP EPK IC50
ALK2 FOP mutant (aa172-499 R206H), sequence (Q04771 172-499 R206H): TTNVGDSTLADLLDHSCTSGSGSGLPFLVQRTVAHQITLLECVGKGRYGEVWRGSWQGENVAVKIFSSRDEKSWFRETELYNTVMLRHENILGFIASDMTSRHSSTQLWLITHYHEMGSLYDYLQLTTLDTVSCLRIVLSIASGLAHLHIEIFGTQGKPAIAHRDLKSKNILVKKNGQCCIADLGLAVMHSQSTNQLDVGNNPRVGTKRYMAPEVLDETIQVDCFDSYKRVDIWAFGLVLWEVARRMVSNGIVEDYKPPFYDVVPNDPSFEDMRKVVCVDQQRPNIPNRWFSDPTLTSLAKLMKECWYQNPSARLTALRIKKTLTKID

[5] = biological target: ALK1 (aa166-493) (Homo sapiens (Human), UniProt P37023); assay: Caliper biochemical peptide phosphorylation assay, ALK1; settings: 15 uM ATP
ALK1 (aa166-493), sequence (P37023 166-493): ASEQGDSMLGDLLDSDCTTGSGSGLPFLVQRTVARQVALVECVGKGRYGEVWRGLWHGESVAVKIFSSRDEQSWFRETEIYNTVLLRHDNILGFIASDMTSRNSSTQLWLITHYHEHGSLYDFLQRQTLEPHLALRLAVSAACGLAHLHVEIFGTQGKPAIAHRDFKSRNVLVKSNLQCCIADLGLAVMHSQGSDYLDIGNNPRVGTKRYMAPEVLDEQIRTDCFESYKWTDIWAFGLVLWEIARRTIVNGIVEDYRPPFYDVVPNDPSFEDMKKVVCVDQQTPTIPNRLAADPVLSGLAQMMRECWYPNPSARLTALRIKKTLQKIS

[6] = biological target: ALK5 (aa162-503) (Homo sapiens (Human), UniProt P36897); assay: Caliper biochemical peptide phosphorylation assay, ALK5; settings: 15 uM ATP
ALK5 (aa162-503), sequence (P36897 162-503): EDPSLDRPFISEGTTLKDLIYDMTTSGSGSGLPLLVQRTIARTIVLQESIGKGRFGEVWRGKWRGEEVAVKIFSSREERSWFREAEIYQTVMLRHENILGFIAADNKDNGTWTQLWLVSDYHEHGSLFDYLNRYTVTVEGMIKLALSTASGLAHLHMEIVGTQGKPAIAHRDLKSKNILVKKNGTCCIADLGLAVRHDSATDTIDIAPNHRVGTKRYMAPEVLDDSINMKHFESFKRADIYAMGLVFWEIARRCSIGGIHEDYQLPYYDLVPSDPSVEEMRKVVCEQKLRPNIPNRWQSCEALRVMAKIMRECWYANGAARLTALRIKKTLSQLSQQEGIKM
Text: For all biochemical assays, human recombinant proteins were expressed in and purified from baculo virus transfected insect cells. The constructs comprised the GS-domain and kinase domain of wild-type ALK2 (aa172-499), ALK2 FOP mutant (aa172-499 R206H), ALK3 (aa198-525), ALK5 (aa162-503) and ALK6 (aa168-495).
A kinase selectivity panel which measures substrate peptide phosphorylation was set-up for wild-type ALK2 (aa172-499), ALK2 FOP mutant (aa172-499 R206H), ALK1 (aa166-493), ALK5 (aa162-503) and ALK6 (aa168-495). The technology used for the described assay is based on the separation and quantification of substrate and product in an electrical field. In the course of the kinase reaction the peptide substrate is phosphorylated by a kinase. […] Due to this difference in charge the phosphorylated und unphosphorylated peptides migrate with different velocities in an electrical field.
In the applied method, this separation takes place inside a chip that contains a complex capillary system for simultaneous analysis of 12 samples (“LabChip EZ Reader 12-sipper chip”, Caliper Technologies Corp., Mountain View, USA). In order to allow the detection and quantification of the peptides in the capillary system, the peptides carry a fluorescent label (fluorescein). With this label the peptides can be quantified by fluorescence intensity through the instruments laser and detection system (LC3000, Caliper Life Sciences).
The assays were performed in 384-well, low volume microtiter assay plates in a final reaction volume of 9 ul. Dose-response curves were generated by incubating 10 nM of each kinase together with 2 uM of the fluorescently labeled substrate peptide 5-Fluo-Ahx-[…]-T-[…]-amid (10 mM stock solution in DMSO) in 50 mM Hepes pH 7.5, 0.02% Tween 20, 0.02% BSA, 1 mM DTT, 10 uM Na3VO4, 10 mM ß-Glycerolphosphate, 1 mM MgCl2, 12 mM MnCl2 (ALK1 and ALK6 7 mM) and 15 uM ATP for 60 min at 30° C. in the presence or absence of compound diluted in DMSO.
Kinase reactions were terminated by adding 15 ul STOP buffer (100 mM HEPES pH 7.5, 5% DMSO, 0.1% Caliper coating reagent, 10 mM EDTA, and 0.015% Brij35.
Plates with terminated kinase reactions were transferred to the Caliper LC3000 workstation (Caliper Technologies Corp., Mountain View, USA) for reading. The relative amount of phosphorylated peptide r, was calculated using the heights of the substrate peak, s, and the product peak, p:r=p/(p+s).
IC50 values for a given antagonist correspond to the compound concentration needed to inhibit half of the maximum signal of the kinase reaction.

[7] = biological target: ALK6 (aa168-495) (Homo sapiens (Human), UniProt O00238); assay: Caliper biochemical peptide phosphorylation assay, ALK6; settings: 15 uM ATP
ALK6 (aa168-495), sequence (O00238 168-495): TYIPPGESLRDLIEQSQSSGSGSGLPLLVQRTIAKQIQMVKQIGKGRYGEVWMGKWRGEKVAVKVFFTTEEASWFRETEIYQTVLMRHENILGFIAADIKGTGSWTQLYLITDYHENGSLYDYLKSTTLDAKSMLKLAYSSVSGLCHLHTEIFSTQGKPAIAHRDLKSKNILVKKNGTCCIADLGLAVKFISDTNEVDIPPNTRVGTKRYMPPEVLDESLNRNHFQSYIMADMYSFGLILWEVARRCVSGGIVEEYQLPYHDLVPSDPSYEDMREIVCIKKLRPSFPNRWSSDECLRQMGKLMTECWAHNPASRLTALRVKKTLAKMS

[8] = system: HuH7 cells, BMP response element (BRE) luciferase reporter, BMP6 stimulated; assay: BMP signaling reporter gene assay; type: cell-based; settings: Homo sapiens, Huh-7; BMP6 100 ng/ml; read-out: MSD HuH7 cell BMP reporter IC50

T1 sequence (Q04771 172-499): as the sequence (Q04771 172-499 R206H) above, with H35R counted along it
ALK3 (aa198-525), sequence (P36894 198-525): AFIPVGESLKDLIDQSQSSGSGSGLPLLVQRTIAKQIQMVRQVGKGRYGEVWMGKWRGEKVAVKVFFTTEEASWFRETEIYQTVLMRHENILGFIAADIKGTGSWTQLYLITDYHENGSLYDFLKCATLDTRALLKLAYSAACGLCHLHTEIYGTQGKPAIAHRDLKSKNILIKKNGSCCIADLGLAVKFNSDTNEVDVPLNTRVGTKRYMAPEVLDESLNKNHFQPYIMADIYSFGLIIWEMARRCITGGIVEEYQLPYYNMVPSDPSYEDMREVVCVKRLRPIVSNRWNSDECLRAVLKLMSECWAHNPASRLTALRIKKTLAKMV

| IC50 [1] [nM] | IC50 [2] [nM] | IC50 [3] [nM] | IC50 [4] [nM] | IC50 [5] [nM] | IC50 [6] [nM] | IC50 [7] [nM] | IC50 [8] [nM] | SMILES |
| --- | --- | --- | --- | --- | --- | --- | --- | --- |
| 1200 | 5800 | 670 | 870 | 5600 | > 10000 | 4500 | 1200 | CC(C)n1cc(-c2cncc(-c3ccc4c(c3)C(F)(F)C(=O)N4C)c2)ccc1=O [Example 23, 3,3-Difluoro-5-(1′-isopropyl-6′-oxo-1′,6′-dihydro-[3,3′-bipyridin]-5-yl)-1-methylindolin-2-one] |
| 87 | 520 | 80 | 60 | 410 | 610 | 940 | 50 | COc1cc(-c2cncc(-c3ccc4c(c3)CC(=O)N4C)c2)cn(C(C)C)c1=O [Example 2, 5-(1′-Isopropyl-5′-methoxy-6′-oxo-1′,6′-dihydro-[3,3′-bipyridin]-5-yl)-1-methylindolin-2-one] |
| 725 | 4200 | 390 | 340 | 2170 | > 10000 | 2770 | 540 | CCC1C(=O)N(C)c2ccc(-c3cncc(-c4ccc(=O)n(C(C)C)c4)c3)cc21 (centres unmarked) [Example 22, 3-Ethyl-5-(1′-isopropyl-6′-oxo-1′,6′-dihydro-[3,3′-bipyridin]-5-yl)-1-methylindolin-2-one] |
| 1500 | > 15100 | 800 | 810 | 6800 | > 10000 | 7000 | 800 | CN1C(=O)Cc2cc(-c3cncc(-c4ccc(=O)n(CC(F)(F)F)c4)c3)ccc21 [Example 12, 1-methyl-5-(6′-oxo-1′-(2,2,2-trifluoroethyl)-1′,6′-dihydro-[3,3′-bipyridin]-5-yl)indolin-2-one] |
| 200 | 2400 | 170 | 120 | 1500 | 9600 | 5300 | 150 | CN1C(=O)Cc2cc(-c3cncc(-c4ccc(=O)n(C5CCCC5)c4)c3)ccc21 [Example 8, 5-(1′-cyclopentyl-6′-oxo-1′,6′-dihydro-[3,3′-bipyridin]-5-yl)-1-methylindolin-2-one] |
| 150 | 930 | 120 | 110 | 620 | 5000 | 2500 | 130 | CC(C)n1cc(-c2cncc(-c3ccc4c(c3)CC(=O)N4C)n2)ccc1=O [Example 46, 5-(6-(1-isopropyl-6-oxo-1,6-dihydropyridin-3-yl)pyrazin-2-yl)-1-methylindolin-2-one] |
| 680 | 8500 | 620 | 570 | 5300 | > 10000 | > 10000 | 790 | CCC(CC)Cn1cc(-c2cncc(-c3ccc4c(c3)CC(=O)N4C)c2)ccc1=O [Example 13, 5-(1′-(2-ethylbutyl)-6′-oxo-1′,6′-dihydro-[3,3′-bipyridin]-5-yl)-1-methylindolin-2-one] |
| 160 | 1100 | 120 | 100 | 890 | 5000 | 1250 | 210 | CC(C)n1cc(-c2cncc(-c3ccc4c(c3)CC(=O)N4CCO)c2)ccc1=O [Example 45, 1-(2-hydroxyethyl)-5-(1′-isopropyl-6′-oxo-1′,6′-dihydro-[3,3′-bipyridin]-5-yl)indolin-2-one] |
| 1000 | > 15100 | 710 | 600 | 4700 | > 10000 | > 10000 | 420 | CN1C(=O)Cc2cc(-c3cncc(-c4ccc(=O)n(C5CCCCO5)c4)c3)ccc21 (centres unmarked) [Example 18, 1-methyl-5-(6′-oxo-1′-(tetrahydro-2H-pyran-2-yl)-1′,6′-dihydro-[3,3′-bipyridin]-5-yl)indolin-2-one] |
| 160 | 880 | 160 | 150 | 780 | 2700 | 1500 | – | CC(C)n1cc(-c2cncc(-c3ccc4c(c3)CS(=O)(=O)N4CC3CCC3)c2)ccc1=O [Example 51, 5′-(1-(cyclobutylmethyl)-2,2-dioxido-1,3-dihydrobenzo[c]isothiazol-5-yl)-1-isopropyl-[3,3′-bipyridin]-6(1H)-one] |
| 71 | 283 | 60 | 60 | 210 | 2400 | 1000 | 83 | CC(C)n1cc(-c2cncc(-c3ccc4c(c3)CS(=O)(=O)N4C)c2)ccc1=O [Example 48, 1-isopropyl-5′-(1-methyl-2,2-dioxido-1,3-dihydrobenzo[c]isothiazol-5-yl)-[3,3′-bipyridin]-6(1H)-one] |
| 460 | 3400 | 190 | 150 | 1400 | 5600 | 3750 | 310 | CC(C)n1cc(-c2cc(-c3ccc4c(c3)CC(=O)N4C)cnc2N)ccc1=O [Example 42, 5-(2-amino-1′-isopropyl-6′-oxo-1′,6′-dihydro-[3,3′-bipyridin]-5-yl)-1-methylindolin-2-one] |
| 490 | 6300 | 470 | 710 | 6400 | > 10000 | > 10000 | 630 | CC(C)n1cc(-c2cncc(-c3cnc4c(c3)CC(=O)N4)c2)ccc1=O [Example 41, 5-(1′-Isopropyl-6′-oxo-1′,6′-dihydro-[3,3′-bipyridin]-5-yl)-1H-pyrrolo[2,3-b]pyridin-2(3H)-one] |
| 600 | 7900 | 490 | 470 | 4700 | > 10000 | > 10000 | 640 | CN1C(=O)Cc2cc(-c3cncc(-c4ccc(=O)n(CC5CCC5)c4)c3)ccc21 [Example 11, 5-(1′-(cyclobutylmethyl)-6′-oxo-1′,6′-dihydro-[3,3′-bipyridin]-5-yl)-1-methylindolin-2-one] |
| 880 | 9900 | 760 | 740 | 5100 | > 10000 | > 10000 | 1500 | COCn1cc(-c2cncc(-c3ccc4c(c3)CC(=O)N4C)c2)ccc1=O [Example 15, 5-(1′-(methoxymethyl)-6′-oxo-1′,6′-dihydro-[3,3′-bipyridin]-5-yl)-1-methylindolin-2-one] |
| 64 | 570 | 60 | 53 | 360 | 1800 | 720 | 60 | CC(C)N1C(=O)Cc2cc(-c3cncc(-c4ccc(=O)n(C(C)C)c4)c3)ccc21 [Example 21, 1-Isopropyl-5-(1′-isopropyl-6′-oxo-1′,6′-dihydro-[3,3′-bipyridin]-5-yl)indolin-2-one] |
| 130 | 670 | 140 | 130 | 570 | 2900 | 1100 | – | CCN1c2ccc(-c3cncc(-c4ccc(=O)n(C(C)C)c4)c3)cc2CS1(=O)=O [Example 49, 5′-(1-ethyl-2,2-dioxido-1,3-dihydrobenzo[c]isothiazol-5-yl)-1-isopropyl-[3,3′-bipyridin]-6(1H)-one] |
